Source: patent US11607407B2, “Dermal pharmaceutical compositions of 1-methyl-2′,6′-pipecoloxylidide and method of use” (priority 2010, dated 2023)
Like-named read-outs stand apart in the source and are kept apart here.

Assays:
[1] = Effect of formulation pH on flux, Franz-diffusion cell, nylon membrane; assay type: in vitro ADME; details: for Total flux: Mepivacaine 10% w/w, HPMC K4M 3% gel
Protocol: The influence of pH on the permeability of mepivacaine HCl from a variety of gel dosage forms was evaluated. The in-vitro drug release from gel formulations was studied across the Nylon 6, 6 membrane (0.22 μm) using Franz-diffusion cell with effective surface area of 3.14 cm^2 and receptor cell volume of 18 mL. The receptor compartment was filled with PBS pH 6.8 and maintained at 37±0.5° C. with constant magnetic stirring. 0.3-0.5 gm of gel was placed on the donor compartment. The samples (1 mL) were collected from the receptor compartment (dilutions made if required) at predetermined time interval for a period of 6-8 h and replaced by equal volume of fresh receptor solution to maintain constant volume. The amount of drug in the samples was assayed spectrophotometrically at 263 nm against appropriate blank. Studies were carried using HPMC K4M 3% as gelling agent with or without containing carvone (0.5%) as a penetration enhancer, so as to assess the effects of pH per se and pH in the presence of penetration enhancers. When Carbopol 3% was used as gelling agent, it gets precipitated out at pH below 5. HPMC gel formulations at pH 8.5 result in precipitation of mepivacaine from the gel. […] The maximum flux was obtained at pH 7.5.

[2] = tested on: combined HIV viral envelope protein (gp120) and NRTI model of painful HIV-associated peripheral neuropathy; experiment: Thermal hyperalgesia, zalcitabine plus gp120 model; assay type: in vivo, rat; details: for thermal hyperalgesia, difference from control: p ≤0.05
Description: (§1) This study evaluated the effects of topical mepivacaine in DMSO painful HIV-associated peripheral neuropathy. HIV peripheral neuropathy in the rat was induced by sciatic nerve exposure to zalcitabine plus gp120.
(§2) Under anesthesia, the left sciatic nerve of male rats was isolated by blunt dissection of the biceps, without damaging the perineurium. The HIV-1 viral envelope protein, gp120 was embedded in a carrier matrix and delivered directly to the sciatic nerve. The muscular layer was closed using 3-0 silk and the skin sealed with veterinarian-grade cyanoacrylate. Rats received intravenous tail injection of zalcitabine.
(§3) A gauze pad was saturated with either mepivacaine in DMSO (vehicle) or vehicle alone and secured to the left plantar hind paw for 5 min. Rats were immediately tested after removal of the pad. Rats were then tested again at 5, 10 and 15 minutes after removal of the pad. Mepivacaine was tested at various concentrations. The treatment assignment was masked. A period of 48 hrs was allowed between retesting of the rats. The continued presence of hyperalgesia in the rats was confirmed by pre-drug application baseline testing on each test day.
(§4) Plantar hind paw response to noxious heat and pressure application was evaluated before and one week following sciatic nerve surgery to confirm onset of hyperalgesia following gp120 administration. Following 15-20 min acclimation in the test chamber, a thermal heat stimulus was aimed at the mid-plantar hind paw as rats stand on a glass surface. The latency to a withdrawal response was recoded electronically. The stimulus intensity was adjusted to result in mean pre-surgical baseline latencies of approximately 12 seconds. Each hind paw was tested once to obtain a hind paw withdrawal latency. Mechanical allodynia was assessed by application of increasing pressure (32 g/sec) to the plantar hind paw over time. The withdrawal threshold (measured in grams) was reached when the rat withdrew its paw from the apparatus. The pre-surgical withdrawal threshold of naïve rats was about 175 g. […]

[3] = tested on: combined HIV viral envelope protein (gp120) and NRTI model of painful HIV-associated peripheral neuropathy; experiment: Mechanical allodynia, zalcitabine plus gp120 model; assay type: in vivo, rat; details: for mechanical allodynia, difference from control: p ≤0.05
Description: as §1, §2, §3, §4

[4] = tested on: isolated dorsal root ganglion neurons from chick embryos; details: cited from earlier work
[5] = in vivo; cited from earlier work
[6] = tested on: gp120 model of painful HIV-associated peripheral neuropathy; experiment: Mechanical allodynia (hind paw withdrawal threshold), gp120 model; assay type: in vivo, rat; details: for mechanical allodynia, difference from control: p ≤0.05
Description: (§5) This study evaluated the effects of topical mepivacaine in DMSO painful HIV-associated peripheral neuropathy. HIV peripheral neuropathy in the rat was induced by sciatic nerve exposure to gp120.
as §2, with “cyanoacrylate.” for “cyanoacrylate. Rats received intravenous tail injection of zalcitabine.”
as §3
(§6) Plantar hind paw response to noxious heat and pressure application was evaluated before and one week following sciatic nerve surgery to confirm onset of hyperalgesia following gp120 administration. Following 15-20 min acclimation in the test chamber, a thermal heat stimulus was aimed at the mid-plantar hind paw as rats stand on a glass surface. The latency to a withdrawal response was recoded electronically. The stimulus intensity was adjusted to result in mean pre-surgical baseline latencies of approximately 12 seconds. Each hind paw was tested once to obtain a hind paw withdrawal latency. Mechanical allodynia was assessed by application of increasing pressure (32 g/sec) to the plantar hind paw over time. The withdrawal threshold (measured in grams) was reached when the rat withdrew its paw from the apparatus. The pre-surgical withdrawal threshold of naïve rats was about 175 g. Each hind paw was tested once to obtain a hind paw withdrawal threshold. Antinociception, or analgesia, was defined quantally as an increase in response over baseline.
(§7) Statistical analysis for thermal hyperalgesia and mechanical allodynia were performed and statistical significance was declared if the two-sided p-value was ≤0.05. All computations were performed using SigmaStat™ for Windows™, Version 3.5.

tail-flick model = experiment: Tail-flick assay; assay type: in vivo, mice; details: for tail-flick latency, difference from control: p ≤0.05
Protocol: This study evaluated the effects of topical in DMSO mepivacaine in the tail-flick model.
Male mice were maintained on a 12-h light/dark cycle with food and water available ad libitum. Mice were housed in groups of five until testing
Drugs were given topically in DMSO (vehicle) on the tail by immersion of the tail in treatment solution for 5 minutes. Tail-flick latencies were then determined on the region of the tail immersed in the drug, unless otherwise stated. Mice were immediately tested after removal of the tail from the treatment solution and retested at 5 and 10 minutes. Mepivacaine was tested at various concentrations. The treatment assignment was masked.
Analgesia was assessed with the tail-flick assay. Responses were measured by exposing the distal part of the tail to a thermal stimulus, and the latency of exposure was determined. The tail flick latency is the time interval between onset of the heat stimulus and withdrawal of the tail the thermal stimulus. Baseline latencies ranged from 2 to 3 s. Testing was performed immediately after termination of topical administration into the tail and at 5 and 10 minutes thereafter. Antinociception, or analgesia, was defined quantally as an increase in response over baseline.
Statistical analysis was performed and statistical significance was declared if the two-sided p-value was ≤0.05. All computations were performed using SigmaStat™ for Windows™, Version 3.5.

[7] = cited from earlier work
[8] = Solubility of mepivacaine base in formulation solvents; assay type: physicochemical; details: 2.5 g in 2.5 g of propylene glycol
Description: 2.5 g Mepivacaine base was suspended in 2.5 g of propylene glycol.

[9] = in vivo; cited from earlier work; remark: listed apart in the source
[10] = tested on: gp120 model of painful HIV-associated peripheral neuropathy; experiment: Thermal hyperalgesia (hind paw withdrawal latency), gp120 model; assay type: in vivo, rat; details: for thermal hyperalgesia, difference from control: p ≤0.05
Description: as §5
as §2, with “cyanoacrylate.” for “cyanoacrylate. Rats received intravenous tail injection of zalcitabine.”
as §3, §6, §7

rat sciatic nerve = details: cited from earlier work
postherpetic neuralgia = details: Sindrup and Jensen; cited from earlier work
[11] = topical in DMSO, pad on hind paw 5 min

Cc1cccc(C)c1NC(=O)C1CCCCN1C.Cl (racemic) [mepivacaine hydrochloride, 2-piperidinecarboxamide, N(2,6-dimethylphenyl)-1-methyl-, monohydrochloride]
formulation pH at which the maximum flux was obtained ([1]; HPMC gels pH 4.5-7.5): 7.5

Cc1cccc(C)c1NC(=O)C1CCCCN1C (stereo not drawn) [Mepivacaine, 1-methyl-2′,6′-pipecoloxylidide]
thermal hyperalgesia, difference from control ([2]; 2 mg/mL): significantly different from control | thermal hyperalgesia, difference from control ([2]; 4 mg/mL): significantly different from control | antinociceptive effects, section Thermal Hyperalgesia (text says mechanical allodynia) [2, 11]: short lived and variable antinociceptive effects | mechanical allodynia, difference from control ([3]; 2 mg/mL): significantly different from control | mechanical allodynia, difference from control ([3]; 4 mg/mL): significantly different from control | antinociceptive effects for mechanical allodynia [3, 11]: short lived and variable antinociceptive effects | Total flux ([1]; carvone 0.5% w/w, pH 4.5): 0.4251 mg/cm^2/hr | Total flux ([1]; carvone 0.5% w/w, pH 5.5): 0.5847 mg/cm^2/hr | Total flux ([1]; carvone 0.5% w/w, pH 6.8): 0.7245 mg/cm^2/hr | Total flux ([1]; carvone 0.5% w/w, pH 7.5): 0.8035 mg/cm^2/hr | Total flux ([1]; no carvone, pH 4.5): 0.4095 mg/cm^2/hr | Total flux ([1]; no carvone, pH 5.5): 0.6000 mg/cm^2/hr | Total flux ([1]; no carvone, pH 6.8): 0.7531 mg/cm^2/hr | Total flux ([1]; no carvone, pH 7.5): 0.7442 mg/cm^2/hr | IC50 in the growth cone collapse assay, rank among lidocaine, bupivacaine, mepivacaine, ropivacaine [4]: highest | irritation or tissue damage [5]: does not ordinarily produce irritation or tissue damage | methemoglobinemia [5]: does not cause methemoglobinemia | mechanical allodynia, difference from control ([6]; 2 mg/mL in DMSO): significantly different from control | mechanical allodynia, difference from control ([6]; 4 mg/mL in DMSO): significantly different from control | mechanical allodynia, difference from control ([6]; 8 mg/mL in DMSO): significantly different from control | antinociceptive effects for mechanical allodynia [6, 11]: short lived and variable antinociceptive effects | tail-flick latency, difference from control (tail-flick model; 4 mg/mL): significantly different from control | tail-flick latency, difference from control (tail-flick model; 8 mg/mL): significantly different from control | analgesia in tail-flick assay (tail-flick model; tail immersed 5 minutes in DMSO solution): short lived and variable analgesia | solubility in EtOH [7]: 40 g/100 ml | solubility in propylene glycol [8]: not sufficiently soluble | administered dose excreted into the bile as metabolites [9]: over 50% | bound to plasma proteins [9]: approximately 75% | excreted unchanged in the urine [9]: less than 10% | thermal hyperalgesia, difference from control ([10]; 2 mg/mL): significantly different from control | thermal hyperalgesia, difference from control ([10]; 4 mg/mL): significantly different from control | thermal hyperalgesia, difference from control ([10]; 8 mg/mL): significantly different from control | antinociceptive effects for thermal hyperalgesia [10, 11]: short lived and variable antinociceptive effects

CCCCN1CCCCC1C(=O)Nc1c(C)cccc1C (stereo not drawn) [bupivacaine]
neuronal damage in rat sciatic nerve (rat sciatic nerve; 0.75% (23.1 mM)): do not

CCN(CC)CC(=O)Nc1c(C)cccc1C [lidocaine]
IC50 in the growth cone collapse assay, rank among lidocaine, bupivacaine, mepivacaine, ropivacaine [4]: lowest | neuronal damage in rat sciatic nerve (rat sciatic nerve; 80 mM (2.17%)): induced neuronal damage

COc1ccc2c3c1O[C@H]1C(=O)CC[C@@]4(O)[C@@H](C2)N(C)CC[C@]314 [oxycodone]
NNT values in postherpetic neuralgia (postherpetic neuralgia): 2.5

COc1cc(CNC(=O)CCCC/C=C/C(C)C)ccc1O [topical capsaicin, capsaicin]
NNT values in postherpetic neuralgia (postherpetic neuralgia): 5.3
